Consider 4 compounds from ChEMBL document CHEMBL1926563, “Synthesis, antimicrobial, antimycobacterial and structure-activity relationship of substituted pyrazolo-, isoxazolo-, pyrimido- and mercaptopyrimidocyclohepta[b]indoles” (2012).

Values after ≈ are worked out from the molar mass of the structure shown.

What all share (type): functional
Experiment [1] deals with Staphylococcus aureus. Briefly: Antibacterial activity against Staphylococcus aureus NCIM 5021 assessed as zone of inhibition at 100 ug/disc after 24 hrs by disk diffusion method. The conditions noted are these: NCIM 5021, 24 h, read-out: DIZ. Background: In agar diffusion tests the substance spreads into inoculated agar from a disc or well.
The test system of experiment [2] is Fusarium solani. Briefly: Antifungal activity against Fusarium solani NCIM 1330 assessed as zone of inhibition at 100 ug/disc after 48 hrs by disk diffusion method. The conditions noted are these: NCIM 1330, 48 h, read-out: DIZ.
The test system of experiment [3] is Proteus vulgaris. Description: Antibacterial activity against Proteus vulgaris NCIM 2027 assessed as zone of inhibition at 100 ug/disc after 24 hrs by disk diffusion method. Conditions: NCIM 2027, 24 h, read-out: DIZ.
The subject of experiment [4] is Bacillus subtilis. Description: Antibacterial activity against Bacillus subtilis NCIM 2063 assessed as zone of inhibition at 200 ug/disc after 24 hrs by disk diffusion method. Conditions: NCIM 2063, 24 h, read-out: DIZ.
Experiment [5] has as its system Klebsiella pneumoniae. Briefly: Antibacterial activity against Klebsiella pneumoniae NCIM 2957 assessed as zone of inhibition at 100 ug/disc after 24 hrs by disk diffusion method. The conditions noted are these: NCIM 2957, 24 h, read-out: DIZ.
Experiment [6] concerns Aspergillus niger. Briefly: Antifungal activity against Aspergillus niger NCIM 596 assessed as zone of inhibition at 100 ug/disc after 48 hrs by disk diffusion method. Conditions: NCIM 596, 48 h, read-out: DIZ.
In experiment [7] the test system is Bacillus subtilis. Description: Antibacterial activity against Bacillus subtilis NCIM 2063 after 24 hrs by disk diffusion method. The conditions noted are these: NCIM 2063, 24 h.
The subject of experiment [8] is Klebsiella pneumoniae. Briefly: Antibacterial activity against Klebsiella pneumoniae NCIM 2957 after 24 hrs by disk diffusion method. The conditions noted are these: NCIM 2957, 24 h.
Experiment [9] has as its system Staphylococcus aureus. Description: Antibacterial activity against Staphylococcus aureus NCIM 5021 assessed as zone of inhibition at 200 ug/disc after 24 hrs by disk diffusion method. Conditions: NCIM 5021, 24 h, read-out: DIZ.
The subject of experiment [10] is Proteus vulgaris. Description: Antibacterial activity against Proteus vulgaris NCIM 2027 assessed as zone of inhibition at 200 ug/disc after 24 hrs by disk diffusion method. Conditions: NCIM 2027, 24 h, read-out: DIZ.
In experiment [11] the test system is Aspergillus niger. Description: Antifungal activity against Aspergillus niger NCIM 596 after 48 hrs by disk diffusion method. The conditions noted are these: NCIM 596, 48 h.
Experiment [12] has as its system Bacillus subtilis. Description: Antibacterial activity against Bacillus subtilis NCIM 2063 assessed as zone of inhibition at 100 ug/disc after 24 hrs by disk diffusion method. Conditions: NCIM 2063, 24 h, read-out: DIZ.
Experiment [13] has as its system Proteus vulgaris. Description: Antibacterial activity against Proteus vulgaris NCIM 2027 after 24 hrs by disk diffusion method. The conditions noted are these: NCIM 2027, 24 h.
In experiment [14] the test system is Aspergillus niger. Description: Antifungal activity against Aspergillus niger NCIM 596 assessed as zone of inhibition at 200 ug/disc after 48 hrs by disk diffusion method. The conditions noted are these: NCIM 596, 48 h, read-out: DIZ.
Experiment [15] has as its system Fusarium solani. Briefly: Antifungal activity against Fusarium solani NCIM 1330 after 48 hrs by disk diffusion method. The conditions noted are these: NCIM 1330, 48 h.
Experiment [16] deals with Curvularia lunata. Description: Antifungal activity against Curvularia lunata NCIM 716 assessed as zone of inhibition at 200 ug/disc after 48 hrs by disk diffusion method. The conditions noted are these: NCIM 716, 48 h, read-out: DIZ.
The test system of experiment [17] is Curvularia lunata. Description: Antifungal activity against Curvularia lunata NCIM 716 after 48 hrs by disk diffusion method. The conditions noted are these: NCIM 716, 48 h.
Experiment [18] has as its system Mycobacterium tuberculosis. Briefly: Antimycobacterial activity against Mycobacterium tuberculosis H37Rv after 7 days by resazurin microtiter plate assay. The conditions noted are these: 168 h. (In general: Alamar Blue is a resazurin reagent that responds to reducing activity.)
The test system of experiment [19] is Curvularia lunata. Briefly: Antifungal activity against Curvularia lunata NCIM 716 assessed as zone of inhibition at 100 ug/disc after 48 hrs by disk diffusion method. Conditions: NCIM 716, 48 h, read-out: DIZ.
The subject of experiment [20] is Fusarium solani. Description: Antifungal activity against Fusarium solani NCIM 1330 assessed as zone of inhibition at 200 ug/disc after 48 hrs by disk diffusion method. The conditions noted are these: NCIM 1330, 48 h, read-out: DIZ.
Experiment [21] relates to Klebsiella pneumoniae. Description: Antibacterial activity against Klebsiella pneumoniae NCIM 2957 assessed as zone of inhibition at 200 ug/disc after 24 hrs by disk diffusion method. Conditions: NCIM 2957, 24 h, read-out: DIZ.
Experiment [22] concerns Staphylococcus aureus. Briefly: Antibacterial activity against Staphylococcus aureus NCIM 5021 after 24 hrs by disk diffusion method. Conditions: NCIM 5021, 24 h.

With `Oc1ncc2c(n1)-c1[nH]c3ccc(Cl)cc3c1CCC2`, the zone of inhibition at 100 µg/disc was 26 mm in experiment [1]; 17 mm in experiment [2]; 22 mm in experiment [3]; 22 mm in experiment [5]; 16 mm in experiment [6]; 25 mm in experiment [12]. Also, the zone of inhibition at 100 µg/disc in [19] was determined as 19 mm. Further, the zone of inhibition at 200 µg/disc in experiment [4] was determined as 28 mm; in [9], 27 mm; in [10], 20 mm; in experiment [14] it was 19 mm; in experiment [16], 23 mm; in experiment [20], 20 mm. For the same compound, the zone of inhibition at 200 µg/disc in [21] came to 25 mm. The MIC (commonly the least concentration at which growth counts as inhibited) stood at 50 µg/mL (≈ 175 µM) in experiment [7]; 100 µg/mL (≈ 350 µM) in experiment [8]; 50 µg/mL (≈ 175 µM) in experiment [11]; 100 µg/mL (≈ 350 µM) in [13]; 100 µg/mL (≈ 350 µM) in experiment [15]; 50 µg/mL (≈ 175 µM) in experiment [17]. Moreover, the MIC came to 3.12 µg/mL (≈ 10.9 µM) in experiment [18] and 50 µg/mL (≈ 175 µM) in [22].

Take `Sc1ncc2c(n1)-c1[nH]c3ccc(Cl)cc3c1CCC2`: the zone of inhibition at 100 µg/disc worked out at 16 mm in experiment [1]; 16 mm in [2]; 11 mm in experiment [3]; 12 mm in experiment [5]; 15 mm in [6]; 15 mm in experiment [12]. Moreover, in [19], the zone of inhibition at 100 µg/disc worked out at 17 mm. Also, the zone of inhibition at 200 µg/disc stood at 17 mm in experiment [4]; 18 mm in experiment [9]; 13 mm in experiment [10]; 17 mm in experiment [14]; 21 mm in experiment [16]; 19 mm in [20]. In experiment [21], the zone of inhibition at 200 µg/disc was 14 mm. Moreover, the MIC is 50 µg/mL (≈ 166 µM) in experiment [7]; 100 µg/mL (≈ 331 µM) in experiment [8]; 50 µg/mL (≈ 166 µM) in experiment [11]; 100 µg/mL (≈ 331 µM) in [13]; 100 µg/mL (≈ 331 µM) in experiment [15]; 50 µg/mL (≈ 166 µM) in [17]. Moreover, the MIC in experiment [18] was 25 µg/mL (≈ 82.8 µM); in experiment [22] it was 50 µg/mL (≈ 166 µM).

On to `Clc1ccc2[nH]c3c(c2c1)CCCc1c[nH]nc1-3`, for which the zone of inhibition at 100 µg/disc was determined as 34 mm in experiment [1]; 35 mm in experiment [2]; 31 mm in experiment [3]; 30 mm in experiment [5]; 32 mm in experiment [6]; 35 mm in experiment [12]. For the same compound, the zone of inhibition at 100 µg/disc in experiment [19] was 34 mm. The zone of inhibition at 200 µg/disc in experiment [4] is 37 mm; in experiment [9], 36 mm; in [10], 33 mm; in experiment [14], 35 mm; in [16] it was 38 mm; in [20], 39 mm. Also, in experiment [21], the zone of inhibition at 200 µg/disc was found to be 32 mm. The MIC in experiment [7] was 100 µg/mL (≈ 388 µM); in experiment [8] it was 100 µg/mL (≈ 388 µM); in experiment [11] it was 200 µg/mL (≈ 776 µM); in experiment [13], 100 µg/mL (≈ 388 µM); in [15] it was 200 µg/mL (≈ 776 µM); in [17] it was 200 µg/mL (≈ 776 µM). Moreover, the MIC in experiment [18] worked out at 12.5 µg/mL (≈ 48.5 µM); in experiment [22], 100 µg/mL (≈ 388 µM).

As for `Clc1ccc2[nH]c3c(c2c1)CCCc1cnn(-c2ccccc2)c1-3`, the zone of inhibition at 100 µg/disc in experiment [1] worked out at 32 mm; in experiment [2], 32 mm; in experiment [3], 29 mm; in experiment [5], 28 mm; in experiment [6] it was 30 mm; in experiment [12], 33 mm. For the same compound, the zone of inhibition at 100 µg/disc in [19] was found to be 31 mm. Moreover, the zone of inhibition at 200 µg/disc was 32 mm in [4]; 34 mm in [9]; 31 mm in experiment [10]; 35 mm in [14]; 38 mm in experiment [16]; 39 mm in [20]. In addition, the zone of inhibition at 200 µg/disc in experiment [21] stood at 30 mm. The MIC was 25 µg/mL (≈ 74.9 µM) in experiment [7]; 50 µg/mL (≈ 150 µM) in experiment [8]; 100 µg/mL (≈ 300 µM) in [11]; 50 µg/mL (≈ 150 µM) in [13]; 200 µg/mL (≈ 599 µM) in [15]; 100 µg/mL (≈ 300 µM) in [17]. Further, the MIC in experiment [18] is 3.12 µg/mL (≈ 9.35 µM); in experiment [22] it was 25 µg/mL (≈ 74.9 µM).
